Test results reported in ChEMBL document CHEMBL1201862, “PubChem BioAssay data set” (2004).
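Compound exposure: 48 hours, 5 concentrations, 96-well plates. GI50: concentration for 50% inhibition of growth.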 Calls of active or inactive are those of the source. Rule as the data show it: active = GI50 up to about 1.1 µM and inactive = higher.

Tests used:
Assay in all cases: NCI tumour cell line growth inhibition, 48 h
[1] = tested on: ACHN
[2] = tested on: HCC 2998
[3] = tested on: HOP-62
[4] = tested on: Hs-578T
[5] = tested on: K562
[6] = tested on: KM12
[7] = tested on: LOX IMVI
[8] = tested on: MDA-MB-231
[9] = tested on: MDA-N
[10] = tested on: Malme-3M
[11] = tested on: NCI-H226
[12] = tested on: NCI-H522
[13] = tested on: RXF 393
[14] = tested on: SF-295
[15] = tested on: SK-MEL-2
[16] = tested on: SK-OV-3
[17] = tested on: SN12C
[18] = tested on: SNB-19
[19] = tested on: T47D
[20] = tested on: UO-31

SMILES | GI50 [1] | GI50 [2] | GI50 [3] | GI50 [4] | GI50 [5] | GI50 [6] | GI50 [7] | GI50 [8] | GI50 [9] | GI50 [10] | GI50 [11] | GI50 [12] | GI50 [13] | GI50 [14] | GI50 [15] | GI50 [16] | GI50 [17] | GI50 [18] | GI50 [19] | GI50 [20]
c1coc(C2=Nc3cccc4cccc(c34)N2)c1 | 22.1 µM (inactive) | 34.9 µM (inactive) | > 100 µM (inactive) | 55.6 µM (inactive) | 38.7 µM (inactive) | 19.6 µM (inactive) | 41.9 µM (inactive) | 34.6 µM (inactive) | 41.1 µM (inactive) | 93.8 µM (inactive) | > 100 µM (inactive) | 11.2 µM (inactive) | 25.9 µM (inactive) | 34 µM (inactive) | 29.3 µM (inactive) | 98.4 µM (inactive) | 28.4 µM (inactive) | > 100 µM (inactive) | 8.49 µM (inactive) | 16.2 µM (inactive)
Cc1ccc(C(CCO)CCO)nc1 | > 100 µM (inactive) | > 100 µM (inactive) | > 100 µM (inactive) | > 100 µM (inactive) | – | > 100 µM (inactive) | > 100 µM (inactive) | > 100 µM (inactive) | > 100 µM (inactive) | > 100 µM (inactive) | > 100 µM (inactive) | > 100 µM (inactive) | > 100 µM (inactive) | > 100 µM (inactive) | > 100 µM (inactive) | > 100 µM (inactive) | > 100 µM (inactive) | > 100 µM (inactive) | > 100 µM (inactive) | > 100 µM (inactive)
CN(C)CCCNc1ccnc2cccc([N+](=O)[O-])c12 | 5 µM (inactive) | 13.3 µM (inactive) | 18.1 µM (inactive) | 26 µM (inactive) | 29.4 µM (inactive) | 12.8 µM (inactive) | 13.6 µM (inactive) | 17.7 µM (inactive) | 17.2 µM (inactive) | 8.18 µM (inactive) | 15.3 µM (inactive) | 7.96 µM (inactive) | 25.5 µM (inactive) | 13.3 µM (inactive) | 17.2 µM (inactive) | 2.52 µM (inactive) | 15.8 µM (inactive) | 19.6 µM (inactive) | 34.3 µM (inactive) | 13.3 µM (inactive)
O=C1c2cc([N+](=O)[O-])ccc2-c2cccc(F)c21 | > 100 µM (inactive) | 80.2 µM (inactive) | > 100 µM (inactive) | 52.1 µM (inactive) | 43 µM (inactive) | 79.4 µM (inactive) | 60 µM (inactive) | > 100 µM (inactive) | 72.3 µM (inactive) | – | 96.4 µM (inactive) | 44.5 µM (inactive) | 42.9 µM (inactive) | > 100 µM (inactive) | 21.2 µM (inactive) | > 100 µM (inactive) | > 100 µM (inactive) | > 100 µM (inactive) | 23.2 µM (inactive) | 85.3 µM (inactive)
CC1=CC(=O)/C(=C/NC(=S)Nc2ccccc2)C(=O)O1 | > 100 µM (inactive) | > 100 µM (inactive) | > 100 µM (inactive) | > 100 µM (inactive) | > 100 µM (inactive) | > 100 µM (inactive) | > 100 µM (inactive) | > 100 µM (inactive) | > 100 µM (inactive) | – | > 100 µM (inactive) | 53.3 µM (inactive) | 40.7 µM (inactive) | > 100 µM (inactive) | > 100 µM (inactive) | > 100 µM (inactive) | > 100 µM (inactive) | > 100 µM (inactive) | > 100 µM (inactive) | > 100 µM (inactive)
CCCC(=O)Nc1cc(/C=C/C(=O)N2CC(CCl)c3ccc([N+](=O)[O-])cc32)n(C)c1 (configuration not stated) | 50.9 µM (inactive) | 57.7 µM (inactive) | – | 26.8 µM (inactive) | > 100 µM (inactive) | 19.5 µM (inactive) | 73.5 µM (inactive) | 21.6 µM (inactive) | > 100 µM (inactive) | > 100 µM (inactive) | 21.8 µM (inactive) | 28.8 µM (inactive) | > 100 µM (inactive) | 44.1 µM (inactive) | > 100 µM (inactive) | > 100 µM (inactive) | > 100 µM (inactive) | > 100 µM (inactive) | 70 µM (inactive) | > 100 µM (inactive)
COc1cc2ncnc(NS(=O)(=O)c3cc4ccccc4s3)c2cc1OC | > 100 µM (inactive) | > 100 µM (inactive) | > 100 µM (inactive) | 49.9 µM (inactive) | 56.1 µM (inactive) | > 100 µM (inactive) | > 100 µM (inactive) | > 100 µM (inactive) | > 100 µM (inactive) | > 100 µM (inactive) | > 100 µM (inactive) | 28.2 µM (inactive) | 29.8 µM (inactive) | > 100 µM (inactive) | > 100 µM (inactive) | > 100 µM (inactive) | 70.5 µM (inactive) | > 100 µM (inactive) | 25.2 µM (inactive) | 76 µM (inactive)
Nc1nc(Cl)cc(NCC2(CO)CC(Cc3ccccc3)C2)n1 (configuration not stated) | 32 µM (inactive) | 30.7 µM (inactive) | > 66.5 µM (inactive) | 38.7 µM (inactive) | 2.92 µM (inactive) | 35.1 µM (inactive) | 4.37 µM (inactive) | 42.3 µM (inactive) | 25.1 µM (inactive) | 29.4 µM (inactive) | 13.2 µM (inactive) | 36.4 µM (inactive) | 20.4 µM (inactive) | 11.3 µM (inactive) | 22.3 µM (inactive) | 52 µM (inactive) | > 92.3 µM (inactive) | 25.5 µM (inactive) | 1.34 µM (inactive) | 23.4 µM (inactive)
COc1cc(CCNC2=CC(=O)c3cccnc3C2=O)ccc1O | 1.31 µM (inactive) | 1.73 µM (inactive) | 1.32 µM (inactive) | 0.849 µM (active) | 0.483 µM (active) | 1.95 µM (inactive) | 0.284 µM (active) | 0.736 µM (active) | 0.167 µM (active) | 1.1 µM (active) | 1.84 µM (inactive) | 0.721 µM (active) | 0.955 µM (active) | 1.32 µM (inactive) | 1.35 µM (inactive) | 2.52 µM (inactive) | 0.944 µM (active) | 1.61 µM (inactive) | 8.51 µM (inactive) | 0.916 µM (active)
CC(=O)OC[C@@]12C[C@H]3C(=O)C(C)(C)C[C@H]3[C@]1(C)[C@@H](OC(C)=O)[C@]1(O)[C@H]([C@@H](OC(=O)c3ccccc3)[C@@H](C)[C@H]1OC(C)=O)[C@H]2OC(C)=O | > 20 µM (inactive) | > 20 µM (inactive) | > 20 µM (inactive) | > 20 µM (inactive) | 6.87 µM (inactive) | > 20 µM (inactive) | > 20 µM (inactive) | > 20 µM (inactive) | 12.9 µM (inactive) | – | > 20 µM (inactive) | > 20 µM (inactive) | > 20 µM (inactive) | 15.3 µM (inactive) | > 20 µM (inactive) | > 20 µM (inactive) | > 20 µM (inactive) | > 20 µM (inactive) | > 20 µM (inactive) | > 20 µM (inactive)
CC1(C)OC(=S)N(c2ccccc2)C12C=Cc1ccccc1O2 (configuration not stated) | > 100 µM (inactive) | > 100 µM (inactive) | > 100 µM (inactive) | > 100 µM (inactive) | 29.1 µM (inactive) | 35 µM (inactive) | > 100 µM (inactive) | > 100 µM (inactive) | 39.5 µM (inactive) | – | 85.3 µM (inactive) | 20.2 µM (inactive) | > 100 µM (inactive) | 73.5 µM (inactive) | > 100 µM (inactive) | 16.6 µM (inactive) | > 100 µM (inactive) | > 100 µM (inactive) | 20.5 µM (inactive) | 45.6 µM (inactive)
O=[N+]([O-])c1ccc(Sc2c3ccccc3nc3ccccc23)nc1 | 7.87 µM (inactive) | 15.7 µM (inactive) | 23.3 µM (inactive) | 19.4 µM (inactive) | 2.08 µM (inactive) | 23.8 µM (inactive) | 2.24 µM (inactive) | 6.14 µM (inactive) | 5.12 µM (inactive) | 2.11 µM (inactive) | 16.3 µM (inactive) | 2.73 µM (inactive) | 3.28 µM (inactive) | 26.1 µM (inactive) | 20.4 µM (inactive) | 13.2 µM (inactive) | 13.2 µM (inactive) | 18.4 µM (inactive) | 2.57 µM (inactive) | 5.08 µM (inactive)
Fc1ccccc1-c1nn2c(C34CC5CC(CC(C5)C3)C4)nnc2s1 | > 100 µM (inactive) | > 100 µM (inactive) | > 100 µM (inactive) | > 100 µM (inactive) | > 100 µM (inactive) | – | > 100 µM (inactive) | > 100 µM (inactive) | > 100 µM (inactive) | > 100 µM (inactive) | > 100 µM (inactive) | > 100 µM (inactive) | > 100 µM (inactive) | > 100 µM (inactive) | > 100 µM (inactive) | > 100 µM (inactive) | > 100 µM (inactive) | > 100 µM (inactive) | > 100 µM (inactive) | > 100 µM (inactive)
Cc1sc2c(c1C)/C(=N\O)c1cccn1-2 | 37.2 µM (inactive) | 37 µM (inactive) | 25.3 µM (inactive) | 16.9 µM (inactive) | – | 31.6 µM (inactive) | 55.7 µM (inactive) | 52.8 µM (inactive) | 40.6 µM (inactive) | 45.1 µM (inactive) | 29.7 µM (inactive) | 19 µM (inactive) | 23.2 µM (inactive) | 54.7 µM (inactive) | 45.2 µM (inactive) | 39.7 µM (inactive) | 38.5 µM (inactive) | 23.3 µM (inactive) | 25.1 µM (inactive) | 31.6 µM (inactive)
